Assay results reported in ChEMBL document CHEMBL3399997 (Bioorg Med Chem Lett, 2015).

How the values were obtained:
Format in all cases: physicochemical
[1] = Antioxidant activity assessed as hydroxyl radical scavenging activity by measuring relative rate constant (kAOx/kST ratio) using DMPO spin trap by ESR spin-trapping method
[2] = Antioxidant activity assessed as methyl radical scavenging activity by measuring relative rate constant (kAOx/kST ratio) using DMPO spin trap by ESR spin-trapping method
[3] = Antioxidant activity assessed as alkoxyl radical scavenging activity by measuring relative rate constant (kAOx/kST ratio) using DMPO spin trap by ESR spin-trapping method
[4] = Antioxidant activity assessed as rate constant for alkoxyl radical scavenging activity using DMPO spin trap by ESR spin-trapping method
[5] = Antioxidant activity assessed as singlet oxygen radical scavenging activity by measuring relative rate constant (kAOx/kST ratio) using 4-HO-TEMP spin trap by ESR spin-trapping method
[6] = Antioxidant activity assessed as rate constant for methyl radical scavenging activity using DMPO spin trap by ESR spin-trapping method
[7] = Antioxidant activity assessed as superoxide anion radical scavenging activity by measuring relative rate constant (kAOx/kST ratio) using CYPMPO spin trap by ESR spin-trapping method
[8] = Antioxidant activity assessed as rate constant for superoxide anion radical scavenging activity using CYPMPO spin trap by ESR spin-trapping method
[9] = Antioxidant activity assessed as peroxyl radical scavenging activity by measuring relative rate constant (kAOx/kST ratio) using CYPMPO spin trap by ESR spin-trapping method
[10] = Antioxidant activity assessed as rate constant for singlet oxygen radical scavenging activity using 4-HO-TEMP spin trap by ESR spin-trapping method
[11] = Antioxidant activity assessed as rate constant for hydroxyl radical scavenging activity using DMPO spin trap by ESR spin-trapping method

NC(Cc1ccc(O)c(O)c1)C(=O)O (racemic)
Ratio [1]: 14.7
Ratio [2]: 1.82
Ratio [3]: 28.1
K [4]: 3.57 ×10⁴ /M/s
Ratio [5]: 84.4
K [6]: 2.55 ×10⁷ /M/s
Ratio [7]: 687
K [8]: 3.3 ×10⁴ /M/s
Ratio [9]: 32.5
K [10]: 7.59 ×10⁶ /M/s
K [11]: 4.11 ×10¹⁰ /M/s

N[C@@H](Cc1ccc(O)c(O)c1)C(=O)O [LEVODOPA]
Ratio [1]: 0.91
Ratio [2]: 1.85
Ratio [3]: 27.4
K [4]: 3.48 ×10⁴ /M/s
Ratio [5]: 215
K [6]: 2.59 ×10⁷ /M/s
Ratio [7]: 4308
K [8]: 2.07 ×10⁵ /M/s
Ratio [9]: 19.3
K [10]: 1.93 ×10⁷ /M/s
K [11]: 2.55 ×10⁹ /M/s
